Values after ≈ are worked out from the molar mass of the structure shown.
What was measured:
[1] = target: T1, Estrogen receptor (Homo sapiens, UniProt P03372); assay: Induction of selective estrogen receptor alpha degradation in human MCF7 cells after 18 to 24 hrs by in-cell Western analysis; type: cell-based
T1 sequence (P03372 whole entry): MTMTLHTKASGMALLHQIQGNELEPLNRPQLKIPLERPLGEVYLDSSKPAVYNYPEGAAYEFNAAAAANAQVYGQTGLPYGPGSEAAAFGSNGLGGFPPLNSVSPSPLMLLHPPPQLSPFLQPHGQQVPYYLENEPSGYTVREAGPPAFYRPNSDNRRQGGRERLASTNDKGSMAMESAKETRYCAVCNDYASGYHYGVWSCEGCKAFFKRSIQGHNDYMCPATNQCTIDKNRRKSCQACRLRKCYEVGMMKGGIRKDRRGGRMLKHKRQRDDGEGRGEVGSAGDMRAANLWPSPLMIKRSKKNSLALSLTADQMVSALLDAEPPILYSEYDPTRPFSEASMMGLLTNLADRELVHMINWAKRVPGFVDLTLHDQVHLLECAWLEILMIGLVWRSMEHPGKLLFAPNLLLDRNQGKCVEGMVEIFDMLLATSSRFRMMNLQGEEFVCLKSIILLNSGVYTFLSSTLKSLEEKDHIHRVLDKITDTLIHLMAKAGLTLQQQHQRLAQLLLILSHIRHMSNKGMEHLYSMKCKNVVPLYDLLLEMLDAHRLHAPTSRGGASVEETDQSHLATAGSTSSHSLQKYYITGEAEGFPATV

[2] = Equilibrium solubility in pH 6.8 buffer at 1 mM after 16 hrs by HPLC based shake flask method; type: physicochemical
[3] = Clearance in C57BL/6 mouse at 1 mg/kg, iv or 3 mg/kg, po; type: ADME, organism-based; conditions: in vivo
[4] = Cmax in C57BL/6 mouse at 3 mg/kg, po; type: ADME, organism-based; parameters: dose 3 mg/kg, route oral; conditions: in vivo
[5] = Oral bioavailability in C57BL/6 mouse at 3 mg/kg; type: ADME, organism-based; conditions: in vivo
[6] = Clearance in Sprague-Dawley rat at 1 mg/kg, iv or 3 mg/kg, po; type: ADME, organism-based; conditions: in vivo
[7] = Cmax in Sprague-Dawley rat at 3 mg/kg, po; type: ADME, organism-based; parameters: dose 3 mg/kg, route oral; conditions: in vivo
[8] = Oral bioavailability in Sprague-Dawley rat at 3 mg/kg; type: ADME, organism-based; conditions: in vivo
[9] = target: T1, Estrogen receptor; assay: Induction of selective estrogen receptor alpha degradation in human MCF7 cells harboring TK-ERE-Luc assessed as reduction in estradiol-induced transcriptional activity after 24 hrs by luciferase reporter gene assay; type: cell-based

solubility thermodynamic at 16 h, 1000 µM [2] | clearance [3] | Cmax [4] | bioavailability [5] | SMILES | further results
< 5 µM |  |  |  | O=C(/C=C/c1ccc(Oc2c(-c3ccc(O)cc3)sc3cc(O)ccc23)cc1)NCCC(F)(F)F | 
340 µM (≈ 138 µg/mL) |  |  |  | O=C(O)/C=C/c1ccc(Oc2c(-c3ccc(O)cc3)sc3cc(O)ccc23)cc1 | clearance [6]: 54 mL/min/kg; Cmax [7]: 80 nM; bioavailability [8]: 6%
190 µM (≈ 81.4 µg/mL) |  |  |  | Oc1ccc(-c2sc3cc(O)ccc3c2Oc2ccc(/C=C/c3nnn[nH]3)cc2)cc1 | IC50 [9]: 219 nM
11 µM (≈ 4.92 µg/mL) |  |  |  | O=C(/C=C/c1ccc(Oc2c(-c3ccc(O)cc3)sc3cc(O)ccc23)cc1)NCCO | 
< 5 µM |  |  |  | Oc1ccc(-c2sc3cc(O)ccc3c2Oc2ccc(/C=C/c3c[nH]cn3)cc2)cc1 | 
> 1000 µM |  |  |  | O=C(O)CCc1ccc(Oc2c(-c3ccc(O)cc3)sc3cc(O)ccc23)cc1 | 

More lines, now with the values behind:

SMILES | solubility thermodynamic at 16 h, 1000 µM [2] | clearance [3] | Cmax [4] | bioavailability [5] | further results
COCc1ccccc1-c1sc2cc(O)ccc2c1Oc1ccc(/C=C/C(=O)O)cc1 |  |  |  |  | IC50 [1]: 3 nM
O=C(O)/C=C/c1ccc(Oc2c(-c3ccc(F)cc3C(F)(F)F)sc3cc(O)ccc23)cc1 |  | 18 mL/min/kg | 1500 nM | 30% | 
Cc1cc(F)ccc1-c1sc2cc(O)ccc2c1Oc1ccc(/C=C/C(=O)O)cc1 |  | 33 mL/min/kg | 925 nM | 34% | 
CC/C(=C(/c1ccc(/C=C/C(=O)O)cc1)c1ccc2[nH]ncc2c1)c1ccc(F)cc1Cl [BRILANESTRANT] |  | 16 mL/min/kg | 1240 nM | 42% | 
O=C(O)/C=C/c1ccc(Oc2c(-c3ccc(C(F)(F)F)cc3)sc3cc(O)ccc23)cc1 |  | 6 mL/min/kg | 1380 nM | 28% | clearance [6]: 30 mL/min/kg; Cmax [7]: 985 nM; bioavailability [8]: 74%
O=C(O)/C=C/c1ccc(Nc2c(-c3ccc(O)cc3)sc3cc(O)ccc23)cc1 |  |  |  |  | IC50 [9]: > 10000 nM

Reference: ChEMBL document CHEMBL4020850, “Discovery of LSZ102, a Potent, Orally Bioavailable Selective Estrogen Receptor Degrader (SERD) for the Treatment of Estrogen Receptor Positive Breast Cancer” (J Med Chem, 2018)
